Assay results published in patent publication US11987586B1 (TAKEDA PHARMACEUTICAL COMPANY LIMITED, priority 2022, dated 2024).

Columns and labels:
cynomolgus monkeys = test: Evaluation of wake-promoting effects in cynomolgus monkeys (EEG, EMG, locomotor activity); assay type: in vivo, cynomolgus monkey; conditions: Macaca fascicularis, po, p.o., at zeitgeber time 12, 4 hours after administration, male cynomolgus monkeys, read-out: Wakefulness time (% of vehicle treatment) (Mean, n = 2-4)
Experimental: The wake-promoting effects were evaluated by measuring the electroencephalogram (EEG), electromyogram (EMG) and locomotor activity in cynomolgus monkeys. Under isoflurane anesthesia (0.5-5%, Pfizer Japan Inc., Tokyo, Japan), male cynomolgus monkeys (2-3 years old, Hamri Co., Ltd., Ibaraki, Japan) were surgically implanted with radio-telemetry transmitters (L03-F3, Data Sciences International Inc., MN, USA). The two EEG electrodes were stereotaxically positioned at the parietal area and secured to the cranium with stainless-steel screws in contact with the dura. Bilateral EMG electrodes were implanted into the back cervical muscles. After at least a 1-month recovery period in home cages, the monkeys were habituated to the recording chamber (an acrylic cage 60W×55D×75H (cm)) located in a soundproof and electrically shielded room by the time animals sleep sufficiently in the experimental room. Cortical EEG, EMG and locomotor activity were recorded using the telemetry system (PhysioTel Digital telemetry platform, Data Sciences International Inc.). The signals were semi-automatically scored in 20-second epochs by a sleep scoring system (SleepSign, Kissei Comtec Co., Ltd., Nagano, Japan).
Test compound (1 or 3 mg/kg) suspended in 0.5% methylcellulose aqueous solution or vehicle (i.e., 0.5% methylcellulose aqueous solution) was administered orally (p.o.) to monkeys at zeitgeber time 12 in a volume of 5 mL/kg body weight with a pretest-posttest design (n=2-4), and then EEG, EMG and locomotor activity were recorded for 4 hours after administration. The time spent in wakefulness for 4 hours after administration (% of vehicle treatment) was calculated by using SleepSign.

human OX2 receptor = target: T1, human OX2 receptor (Homo sapiens, UniProt O43614); test: Measurement of orexin type 2 receptor agonist activity (calcium fluorescence, Fluo-4, FDSS); assay type: cell-based; conditions: 3 uM test compound; CHO cells expressing human OX2 receptor; DMSO = 0%, 10 nM orexin A (human) = 100%
T1 construct: expressed in transfected cells
T1 sequence (O43614 1-444): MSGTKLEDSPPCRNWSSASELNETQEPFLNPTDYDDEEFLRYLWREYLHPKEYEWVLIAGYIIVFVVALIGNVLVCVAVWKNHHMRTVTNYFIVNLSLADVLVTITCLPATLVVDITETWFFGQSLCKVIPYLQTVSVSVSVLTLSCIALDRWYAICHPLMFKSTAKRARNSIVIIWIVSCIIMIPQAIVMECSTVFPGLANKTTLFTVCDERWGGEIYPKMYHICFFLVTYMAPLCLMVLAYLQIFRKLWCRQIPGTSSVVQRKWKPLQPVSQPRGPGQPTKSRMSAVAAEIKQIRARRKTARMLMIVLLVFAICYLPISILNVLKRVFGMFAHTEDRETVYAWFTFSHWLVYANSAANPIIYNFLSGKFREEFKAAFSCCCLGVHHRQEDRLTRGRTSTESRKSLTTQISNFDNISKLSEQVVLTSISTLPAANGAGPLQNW
In short: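 CHO-K1 cells stably expressing human OX2 receptor (residues 1-444) were loaded with Fluo-4 AM plus probenecid. Calcium fluorescence after compound addition was recorded for 1 min 40 s. Activity (%) was scaled between DMSO (0%) and 10 nM orexin A final (100%).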

Compound | OX2R agonist activity (3 uM, %) (human OX2 receptor) | response vs control in vivo at 3 mg/kg (cynomolgus monkeys; 3 mg/kg) | response vs control in vivo at 1 mg/kg (cynomolgus monkeys)
CCS(=O)(=O)N[C@H]1C[C@H]2CN(c3noc4cccc(-c5c(F)cccc5F)c34)C(=O)N2C1 [Example 1, N-{(6S,7aS)-2-[4-(2,6-Difluorophenyl)-1,2-benzoxazol-3-yl]-3-oxohexahydro-1H-pyrrolo[1,2-c]imidazol-6-yl}ethanesulfonamide] | 104% | 383% | 
CS(=O)(=O)N[C@@H]1Cn2c(cn(-c3noc4cccc(-c5c(F)cc(F)cc5F)c34)c2=O)C1(F)F [Example 16, N-{(6R)-7,7-Difluoro-3-oxo-2-[4-(2,4,6-trifluorophenyl)-1,2-benzoxazol-3-yl]-2,5,6,7-tetrahydro-3H-pyrrolo[1,2-c]imidazol-6-yl}methanesulfonamide] | 107% |  | 546%
CCS(=O)(=O)N[C@@H]1CN2C(=O)N(c3noc4cccc(-c5c(F)cc(F)cc5F)c34)C[C@@H]2C1(F)F [Example 24, N-{(6R,7aR)-7,7-Difluoro-3-oxo-2-[4-(2,4,6-trifluorophenyl)-1,2-benzoxazol-3-yl]hexahydro-1H-pyrrolo[1,2-c]imidazol-6-yl}ethanesulfonamide] | 104% |  | 393%
CCS(=O)(=O)N[C@H]1C[C@H]2CN(c3noc4cc(Cl)cc(-c5c(F)cccc5F)c34)C(=O)N2C1 [Example 50, N-{(6S,7aS)-2-[6-Chloro-4-(2,6-difluorophenyl)-1,2-benzoxazol-3-yl]-3-oxohexahydro-1H-pyrrolo[1,2-c]imidazol-6-yl}ethanesulfonamide] | 103% |  | 176%
CS(=O)(=O)N[C@@H]1CN2C(=O)N(c3noc4cccc(-c5c(F)cc(F)cc5F)c34)C[C@@H]2C1(F)F [Example 71, N-{(6R,7aR)-7,7-Difluoro-3-oxo-2-[4-(2,4,6-trifluorophenyl)-1,2-benzoxazol-3-yl]hexahydro-1H-pyrrolo[1,2-c]imidazol-6-yl}methanesulfonamide] | 97% |  | 703%
CS(=O)(=O)N[C@@H]1CN2C(=O)N(c3noc4cccc(-c5ncc(F)cc5F)c34)CC[C@@H]2C1(F)F [Example 320, N-{(4aR,6R)-2-[4-(3,5-difluoropyridin-2-yl)-1,2-benzoxazol-3-yl]-5,5-difluoro-1-oxooctahydropyrrolo[1,2-c]pyrimidin-6-yl}methanesulfonamide] | 104% |  | 
CCS(=O)(=O)N[C@@H]1CN2C(=O)N(c3noc4cccc(-c5ncc(F)cc5F)c34)CC[C@@H]2C1(F)F [Example 321, N-{(4aR,6R)-2-[4-(3,5-difluoropyridin-2-yl)-1,2-benzoxazol-3-yl]-5,5-difluoro-1-oxooctahydropyrrolo[1,2-c]pyrimidin-6-yl}ethanesulfonamide] | 108% |  | 
CCS(=O)(=O)N[C@@H]1CN2C(=O)N(c3noc4cccc(-c5ccccc5OC)c34)CC[C@@H]2C1(F)F [Example 322, N-{(4aR,6R)-5,5-difluoro-2-[4-(2-methoxyphenyl)-1,2-benzoxazol-3-yl]-1-oxooctahydropyrrolo[1,2-c]pyrimidin-6-yl}ethanesulfonamide] | 99% |  | 
CCS(=O)(=O)N[C@@H]1CN2C(=O)N(c3noc4cccc(-c5ccc(F)cc5C)c34)CC[C@@H]2C1(F)F [Example 323, N-{(4aR,6R)-5,5-difluoro-2-[4-(4-fluoro-2-methylphenyl)-1,2-benzoxazol-3-yl]-1-oxooctahydropyrrolo[1,2-c]pyrimidin-6-yl}ethanesulfonamide] | 97% |  | 
CCS(=O)(=O)N[C@@H]1CN2C(=O)N(c3noc4cccc(-c5ccco5)c34)CC[C@@H]2C1(F)F [Example 324, N-{(4aR,6R)-5,5-difluoro-2-[4-(furan-2-yl)-1,2-benzoxazol-3-yl]-1-oxooctahydropyrrolo[1,2-c]pyrimidin-6-yl}ethanesulfonamide] | 97% |  | 
CCS(=O)(=O)N[C@@H]1CN2C(=O)N(c3noc4cccc(-c5ccccc5C)c34)CC[C@@H]2C1(F)F [Example 325, N-{(4aR,6R)-5,5-difluoro-2-[4-(2-methylphenyl)-1,2-benzoxazol-3-yl]-1-oxooctahydropyrrolo[1,2-c]pyrimidin-6-yl}ethanesulfonamide] | 101% |  | 
CCS(=O)(=O)N[C@@H]1CN2C(=O)N(c3noc4cccc(-c5ccsc5)c34)CC[C@@H]2C1(F)F [Example 326, N-{(4aR,6R)-5,5-difluoro-1-oxo-2-[4-(thiophen-3-yl)-1,2-benzoxazol-3-yl]octahydropyrrolo[1,2-c]pyrimidin-6-yl}ethanesulfonamide] | 99% |  | 
CCS(=O)(=O)N[C@@H]1CN2C(=O)N(c3noc4cccc(-c5ccccc5Cl)c34)CC[C@@H]2C1(F)F [Example 327, N-{(4aR,6R)-2-[4-(2-chlorophenyl)-1,2-benzoxazol-3-yl]-5,5-difluoro-1-oxooctahydropyrrolo[1,2-c]pyrimidin-6-yl}ethanesulfonamide] | 118% |  | 
CCS(=O)(=O)N[C@@H]1CN2C(=O)N(c3noc4cccc(-c5cccs5)c34)CC[C@@H]2C1(F)F [Example 328, N-{(4aR,6R)-5,5-difluoro-1-oxo-2-[4-(thiophen-2-yl)-1,2-benzoxazol-3-yl]octahydropyrrolo[1,2-c]pyrimidin-6-yl}ethanesulfonamide] | 103% |  | 

Now from value to compound, other results behind:

OX2R agonist activity (3 uM, %) (human OX2 receptor) | Compound | response vs control in vivo at 3 mg/kg (cynomolgus monkeys; 3 mg/kg) | response vs control in vivo at 1 mg/kg (cynomolgus monkeys)
101% | CCS(=O)(=O)N[C@@H]1CN2C(=O)N(c3noc4cccc(-c5ccc(F)cc5Cl)c34)CC[C@@H]2C1(F)F [Example 329, N-{(4aR,6R)-2-[4-(2-chloro-4-fluorophenyl)-1,2-benzoxazol-3-yl]-5,5-difluoro-1-oxooctahydropyrrolo[1,2-c]pyrimidin-6-yl}ethanesulfonamide] |  | 
109% | CCS(=O)(=O)N[C@@H]1CN2C(=O)N(c3noc4cccc(-c5nccs5)c34)CC[C@@H]2C1(F)F [Example 330, N-{(4aR,6R)-5,5-difluoro-1-oxo-2-[4-(1,3-thiazol-2-yl)-1,2-benzoxazol-3-yl]octahydropyrrolo[1,2-c]pyrimidin-6-yl}ethanesulfonamide] |  | 
45% | CCS(=O)(=O)N[C@@H]1CN2C(=O)N(c3noc4cccc(C5CCC5)c34)CC[C@@H]2C1(F)F [Example 331, N-[(4aR,6R)-2-(4-cyclobutyl-1,2-benzoxazol-3-yl)-5,5-difluoro-1-oxooctahydropyrrolo[1,2-c]pyrimidin-6-yl]ethanesulfonamide] |  | 
106% | CCS(=O)(=O)N[C@@H]1CN2C(=O)N(c3noc4cccc(-c5sccc5C)c34)CC[C@@H]2C1(F)F [Example 332, N-{(4aR,6R)-5,5-difluoro-2-[4-(3-methylthiophen-2-yl)-1,2-benzoxazol-3-yl]-1-oxooctahydropyrrolo[1,2-c]pyrimidin-6-yl}ethanesulfonamide] |  | 
68% | CCS(=O)(=O)N[C@@H]1CN2C(=O)N(c3noc4cccc(N5CCCCC5)c34)CC[C@@H]2C1(F)F [Example 333, N-{(4aR,6R)-5,5-difluoro-1-oxo-2-[4-(piperidin-1-yl)-1,2-benzoxazol-3-yl]octahydropyrrolo[1,2-c]pyrimidin-6-yl}ethanesulfonamide] |  | 
111% | CCS(=O)(=O)N[C@@H]1CN2C(=O)N(c3noc4cccc(-c5ccccc5F)c34)CC[C@@H]2C1(F)F [Example 334, N-{(4aR,6R)-5,5-difluoro-2-[4-(2-fluorophenyl)-1,2-benzoxazol-3-yl]-1-oxooctahydropyrrolo[1,2-c]pyrimidin-6-yl}ethanesulfonamide] |  | 
101% | CCS(=O)(=O)N[C@@H]1CN2C(=O)N(c3noc4cccc(-c5ncc(F)cc5C)c34)CC[C@@H]2C1(F)F [Example 335, N-{(4aR,6R)-5,5-difluoro-2-[4-(5-fluoro-3-methylpyridin-2-yl)-1,2-benzoxazol-3-yl]-1-oxooctahydropyrrolo[1,2-c]pyrimidin-6-yl}ethanesulfonamide] |  | 
